Laboratory results published in ChEMBL document CHEMBL5096235, “In Silico Exploration and Biological Evaluation of Bispecific Peptides Derived from Anti-HER2 Antibodies and Peptide-Camptothecin Conjugates for HER2-Positive Breast Cancer” (J Med Chem, 2022).
The source made the active and inactive calls. The calls are words filed in the database; no cut-off is given here. Residues, ends and D or L forms follow the SMILES beside them. *: point of attachment. S(CH2)2OCO2(CPT-20-yl) = CC[C@@]1(OC(=O)OCCS*)C(=O)OCc2c1cc1n(c2=O)Cc2cc3ccccc3nc2-1

Experiments:
[1] = Toxicity in nude mouse xenografted with human SK-BR-3 cells assessed as spleen damage at 8 micromol/kg, iv administered every 3 days for 14 days by H and E staining based analysis; type: organism-based; conditions: in vivo, 336 h, dose 8 µmol/kg, time 14 day
SK-BR-3 [2] = assay: Induction of cell cycle arrest in human SK-BR-3 cells assessed as accumulation of cells at S phase at 1 uM incubated for 24 hrs by flow cytometry analysis (reference value: 23%); type: functional
[3] = Toxicity in nude mouse xenografted with human SK-BR-3 cells assessed as effect on globulin level at 8 micromol/kg, iv administered every 3 days for 14 days; type: organism-based; conditions: in vivo, 336 h, dose 8 µmol/kg, time 14 day
[4] = Toxicity in nude mouse xenografted with human SK-BR-3 cells assessed as lung damage at 8 micromol/kg, iv administered every 3 days for 14 days by H and E staining based analysis; type: organism-based; conditions: in vivo, 336 h, dose 8 µmol/kg, time 14 day
SK-BR-3 [5] = assay: Induction of cell cycle arrest in human SK-BR-3 cells assessed as accumulation of cells at S phase at 2 uM incubated for 24 hrs by flow cytometry analysis (reference value: 23%); type: functional
SK-BR-3 [6] = assay: Antitumor activity against human SK-BR-3 cells xenografted in nude mouse assessed as reduction in tumor growth at 8 umol/kg, iv administered every 3 days for 14 days and measured every 2 days; type: functional, organism-based; conditions: dose 8.0 µmol/kg, time 14.0 day
[7] = Toxicity in nude mouse xenografted with human SK-BR-3 cells assessed as effect on total protein level at 8 micromol/kg, iv administered every 3 days for 14 days; type: organism-based; conditions: in vivo, 336 h, dose 8 µmol/kg, time 14 day
[8] = […] in nude mouse xenografted with human SK-BR-3 cells assessed as effect on aspartate aminotransferase level at 8 micromol/kg, iv administered every 3 days for 14 days; type: organism-based; conditions: in vivo, 336 h, dose 8 µmol/kg, time 14 day
[9] = Toxicity in nude mouse xenografted with human SK-BR-3 cells assessed as reduction in body weight at 8 umol/kg, iv administered every 3 days for 14 days; type: organism-based; conditions: in vivo, 336 h, dose 8 µmol/kg, time 14 day
SK-BR-3 [10] = assay: Induction of apoptosis in human SK-BR-3 cells assessed as live cells at 1 uM incubated for 24 hrs by Annexin V-FITC/PI staining based flow cytometry analysis (Rvb= 89.4%); type: functional
[11] = Renal toxicity in nude mouse xenografted with human SK-BR-3 cells assessed as effect on blood urea nitrogen level at 8 micromol/kg, iv administered every 3 days for 14 days; type: organism-based; conditions: in vivo, 336 h, dose 8 µmol/kg, time 14 day
[12] = biological target: T1, Receptor tyrosine-protein kinase erbB-2 (Homo sapiens, UniProt P04626); assay: Binding affinity to HER2 in HER-positive human SK-BR-3 cells assessed as increase in fluorescence intensity at 25 uM by Hoechst 33342 staining based confocal microscopic analysis; type: cell-based
T1 sequence (P04626 whole entry): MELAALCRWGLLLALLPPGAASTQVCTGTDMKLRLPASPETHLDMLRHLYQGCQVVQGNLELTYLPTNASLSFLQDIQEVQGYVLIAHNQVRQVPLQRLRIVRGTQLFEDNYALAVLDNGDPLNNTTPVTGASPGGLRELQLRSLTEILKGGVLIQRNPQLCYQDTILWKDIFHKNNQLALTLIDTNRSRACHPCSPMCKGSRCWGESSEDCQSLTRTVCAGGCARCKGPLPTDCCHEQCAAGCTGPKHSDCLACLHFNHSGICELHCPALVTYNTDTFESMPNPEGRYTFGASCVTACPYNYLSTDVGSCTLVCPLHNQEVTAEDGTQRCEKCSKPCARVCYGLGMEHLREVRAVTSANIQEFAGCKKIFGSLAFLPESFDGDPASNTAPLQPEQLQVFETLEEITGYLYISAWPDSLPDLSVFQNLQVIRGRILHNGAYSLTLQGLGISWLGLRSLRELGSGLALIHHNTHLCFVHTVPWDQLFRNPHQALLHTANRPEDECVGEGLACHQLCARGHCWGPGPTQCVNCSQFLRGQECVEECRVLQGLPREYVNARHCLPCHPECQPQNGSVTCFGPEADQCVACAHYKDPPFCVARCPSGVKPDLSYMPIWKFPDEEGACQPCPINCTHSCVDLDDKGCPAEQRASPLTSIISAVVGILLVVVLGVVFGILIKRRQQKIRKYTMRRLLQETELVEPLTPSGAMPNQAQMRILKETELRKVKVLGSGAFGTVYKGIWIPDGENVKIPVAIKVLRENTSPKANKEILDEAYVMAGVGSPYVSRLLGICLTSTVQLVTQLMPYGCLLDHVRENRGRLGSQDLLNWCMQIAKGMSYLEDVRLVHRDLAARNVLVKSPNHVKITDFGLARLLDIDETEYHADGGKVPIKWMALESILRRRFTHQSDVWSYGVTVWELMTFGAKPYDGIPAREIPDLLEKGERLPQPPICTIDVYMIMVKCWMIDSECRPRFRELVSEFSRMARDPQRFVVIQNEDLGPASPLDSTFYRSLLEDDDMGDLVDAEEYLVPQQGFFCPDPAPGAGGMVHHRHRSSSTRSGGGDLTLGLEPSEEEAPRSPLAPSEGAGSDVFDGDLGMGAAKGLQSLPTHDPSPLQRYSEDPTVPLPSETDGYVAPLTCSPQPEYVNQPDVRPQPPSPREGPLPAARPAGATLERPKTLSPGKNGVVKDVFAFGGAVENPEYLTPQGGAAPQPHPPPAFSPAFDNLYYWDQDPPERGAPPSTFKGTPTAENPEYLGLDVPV

SK-BR-3 [13] = assay: Cytotoxicity against HER-positive human SK-BR-3 cells assessed as inhibition of cell growth incubated for 48 hrs by MTT assay; type: functional, cell-based; conditions: SK-BR-3, 48 h
[14] = Metabolic stability in Sprague-Dawley rat plasma assessed as drug degradation incubated for 120 mins by LC-MS/MS analysis; type: ADME, cell-free; conditions: 2 h
[15] = biological target: T2, DNA topoisomerase 1 (Homo sapiens) (UniProt P11387); assay: Inhibition of topoisomerase 1 (unknown origin) assessed as relaxation of supercoiled plasmid pBR322 DNA at 100 uM preincubated for 20 mins followed by pBR322 DNA addition and measured after 30 mins by agarose gel electrophoresis analysis; conditions: time 50.0 min
T2 sequence (whole entry): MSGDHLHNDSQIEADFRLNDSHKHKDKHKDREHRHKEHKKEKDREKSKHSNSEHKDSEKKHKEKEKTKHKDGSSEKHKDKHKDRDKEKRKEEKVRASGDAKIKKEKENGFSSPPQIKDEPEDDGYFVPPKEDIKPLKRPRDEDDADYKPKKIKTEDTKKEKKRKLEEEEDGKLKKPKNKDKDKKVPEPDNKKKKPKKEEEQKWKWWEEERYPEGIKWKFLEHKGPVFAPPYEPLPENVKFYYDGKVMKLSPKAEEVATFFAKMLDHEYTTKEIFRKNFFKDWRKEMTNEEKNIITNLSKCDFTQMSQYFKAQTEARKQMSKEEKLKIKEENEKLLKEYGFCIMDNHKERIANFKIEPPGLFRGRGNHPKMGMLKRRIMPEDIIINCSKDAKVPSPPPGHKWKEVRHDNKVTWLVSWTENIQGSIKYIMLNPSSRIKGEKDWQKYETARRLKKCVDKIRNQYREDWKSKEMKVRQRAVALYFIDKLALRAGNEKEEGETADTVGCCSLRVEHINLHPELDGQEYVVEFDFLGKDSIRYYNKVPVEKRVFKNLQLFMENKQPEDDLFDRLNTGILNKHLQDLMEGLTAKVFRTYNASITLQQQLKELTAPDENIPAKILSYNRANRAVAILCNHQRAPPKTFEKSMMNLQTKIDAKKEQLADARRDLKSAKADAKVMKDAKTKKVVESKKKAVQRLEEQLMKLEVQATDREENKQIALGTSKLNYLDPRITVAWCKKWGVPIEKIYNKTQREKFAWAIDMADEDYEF

[16] = biological target: T1, Receptor tyrosine-protein kinase erbB-2; assay: Binding affinity to recombinant HER2 (unknown origin) assessed as dissociation constant by SPR analysis
[17] = Toxicity in nude mouse xenografted with human SK-BR-3 cells assessed as effect on albumin level at 8 micromol/kg, iv administered every 3 days for 14 days; type: organism-based; conditions: in vivo, 336 h, dose 8 µmol/kg, time 14 day
[18] = Toxicity in nude mouse xenografted with human SK-BR-3 cells assessed as cellular necrosis at 8 micromol/kg, iv administered every 3 days for 14 days by H and E staining based analysis; type: organism-based; conditions: in vivo, 336 h, dose 8 µmol/kg, time 14 day
[19] = […] in nude mouse xenografted with human SK-BR-3 cells assessed as effect on alanine aminotransferase level at 8 micromol/kg, iv administered every 3 days for 14 days; type: organism-based; conditions: in vivo, 336 h, dose 8 µmol/kg, time 14 day
[20] = Cytotoxicity against human MCF-10A cells assessed as inhibition of cell growth incubated for 48 hrs by MTT assay; type: toxicity, cell-based
[21] = biological target: Epidermal growth factor receptor and ErbB2 (HER1 and HER2) (Homo sapiens) (UniProt P04626+P00533); assay: Inhibition of EGFR/HER2 heterodimerization in human SK-BR-3 cells at 10 uM preincubated for 4 hrs followed by EGF addition for 20 mins by immunoprecipitation analysis; type: cell-based; conditions: time 260.0 min
[22] = Toxicity in nude mouse xenografted with human SK-BR-3 cells assessed as effect on creatinine level at 8 micromol/kg, iv administered every 3 days for 14 days; type: organism-based; conditions: in vivo, 336 h, dose 8 µmol/kg, time 14 day
SK-BR-3 [23] = assay: Induction of apoptosis in human SK-BR-3 cells assessed as live cells at 2 uM incubated for 24 hrs by Annexin V-FITC/PI staining based flow cytometry analysis (Rvb= 89.4%); type: functional
SK-BR-3 [24] = assay: Induction of apoptosis in human SK-BR-3 cells assessed as late apoptotic cells at 1 uM incubated for 24 hrs by Annexin V-FITC/PI staining based flow cytometry analysis (Rvb= 5.02%); type: functional
[25] = Toxicity in nude mouse xenografted with human SK-BR-3 cells assessed as effect on alkaline phosphatase level at 8 micromol/kg, iv administered every 3 days for 14 days; type: organism-based; conditions: in vivo, 336 h, dose 8 µmol/kg, time 14 day
SK-BR-3 [26] = assay: Induction of apoptosis in human SK-BR-3 cells assessed as early apoptotic cells at 1 uM incubated for 24 hrs by Annexin V-FITC/PI staining based flow cytometry analysis (Rvb= 4.37%); type: functional
SK-OV-3 = assay: Cytotoxicity against HER-positive human SK-OV-3 cells assessed as inhibition of cell growth incubated for 48 hrs by MTT assay; type: functional, cell-based; conditions: SK-OV-3, 48 h

| Compound | Activity [1] | Activity (SK-BR-3 [2]) | Activity [3] | Activity [4] | Activity (SK-BR-3 [5]) | Activity (SK-BR-3 [6]) | Activity [7] | Activity [8] | Activity [9] | Activity (SK-BR-3 [10]) | Activity [11] | Activity [12] | IC50 (SK-BR-3 [13]) | Stability [14] | inhibition [15] | Kd [16] | Activity [17] | Activity [18] | Activity [19] | IC50 at 48 h [20] | further results |
| --- | --- | --- | --- | --- | --- | --- | --- | --- | --- | --- | --- | --- | --- | --- | --- | --- | --- | --- | --- | --- | --- |
| CC[C@H](C)[C@H](NC(=O)[C@@H](N)CCCNC(=N)N)C(=O)N[C@@H](CCCCN)C(=O)N1CCC[C@H]1C(=O)N[C@@H](CCCNC(=N)N)C(=O)N[C@@H](CCCCN)C(=O)NCC(=O)N[C@@H](Cc1ccc(O)cc1)C(=O)N[C@H](C(=O)N[C@@H](CCCNC(=N)N)C(=O)NCC(=O)N[C@@H](CSSCCOC(=O)O[C@]1(CC)C(=O)OCc2c1cc1n(c2=O)Cc2cc3ccccc3nc2-1)C(=O)NCC(=O)N[C@@H](CSSCCOC(=O)O[C@]1(CC)C(=O)OCC2=C1C=C1c3nc4ccccc4cc3NC1C2=O)C(=O)NC(=O)C[C@H](NC(=O)CN)C(=O)N1CCC[C@H]1C(=O)N[C@@H](CC(N)=O)C(=O)N[C@@H](Cc1c[nH]c2ccccc12)C(=O)NCC(=O)N[C@@H](CCCNC(=N)N)C(=O)N[C@@H](CO)C(=O)N[C@@H](Cc1c[nH]c2ccccc12)C(=O)N[C@@H](Cc1ccc(O)cc1)C(=O)N[C@@H](CC(N)=O)C(=O)N[C@@H](CCC(N)=O)C(=O)N[C@@H](CCCNC(=N)N)C(=O)N[C@@H](Cc1ccccc1)C(=O)N[C@@H](CCCCN)C(N)=O)[C@@H](C)O (some centres undefined) | Non-Toxic | 43.45% | Non-Toxic | Non-Toxic | 49.2% | Active | Non-Toxic | Non-Toxic | Non-Toxic | 51.2% | Toxic | Active | 120 nM | Unstable | Active | 437 nM | Non-Toxic | Non-Toxic | Non-Toxic | 17100 nM | inhibition [21]: Active; Activity [22]: Non-Toxic; Activity (SK-BR-3 [23]): 44.7%; Activity (SK-BR-3 [24]): 8.5%; Activity [25]: Non-Toxic; Activity (SK-BR-3 [26]): 39.8%; IC50 (SK-OV-3): 1270 nM |
| CC[C@H](C)[C@H](NC(=O)[C@@H](N)CCCNC(=N)N)C(=O)N[C@@H](CCCCN)C(=O)N1CCC[C@H]1C(=O)N[C@@H](CCCNC(=N)N)C(=O)N[C@@H](CCCCN)C(=O)NCC(=O)N[C@@H](Cc1ccc(O)cc1)C(=O)N[C@H](C(=O)N[C@@H](CCCNC(=N)N)C(=O)NCC(=O)N[C@@H](CSSCCOC(=O)O[C@]1(CC)C(=O)OCc2c1cc1n(c2=O)Cc2cc3ccccc3nc2-1)C(=O)NCC(=O)N[C@@H](CC(N)=O)C(=O)N1CCC[C@H]1C(=O)N[C@@H](CC(N)=O)C(=O)N[C@@H](Cc1c[nH]c2ccccc12)C(=O)NCC(=O)N[C@@H](CCCNC(=N)N)C(=O)N[C@@H](CO)C(=O)N[C@@H](Cc1c[nH]c2ccccc12)C(=O)N[C@@H](Cc1ccc(O)cc1)C(=O)N[C@@H](CC(N)=O)C(=O)N[C@@H](CCC(N)=O)C(=O)N[C@@H](CCCNC(=N)N)C(=O)N[C@@H](Cc1ccccc1)C(=O)N[C@@H](CCCCN)C(N)=O)[C@@H](C)O (H-RIKPRKGYTRGC(S(CH2)2OCO2(CPT-20-yl))GNPNWGRSWYNQRFK-NH2) | Non-Toxic | 39.2% | Non-Toxic | Non-Toxic | 48.5% | Active | Non-Toxic | Non-Toxic | Non-Toxic | 57.6% | Non-Toxic | Active | 1470 nM | Unstable | Active | 330 nM | Non-Toxic | Non-Toxic | Non-Toxic | 23900 nM | inhibition [21]: Active; Activity [22]: Non-Toxic; Activity (SK-BR-3 [23]): 49.1%; Activity (SK-BR-3 [24]): 7.25%; Activity [25]: Non-Toxic; Activity (SK-BR-3 [26]): 34.9%; IC50 (SK-OV-3): 4290 nM |
